The record followed here is patent publication US7521458B2, “Spiropiperidylrifamycins for the treatment of mycobacterial infections” (priority 2004, dated 2009).

Holding throughout (type): cell-based
Conditions in all cases: concentration analysed 1 μg/ml

In experiment [1] the test system is Mycobacterium tuberculosis 3 strains assayed. Put plainly: Method of the proportions, Table 3 entry 9.
The test system of experiment [2] is Mycobacterium tuberculosis ATCC 35822. Put plainly: Method of the proportions, Table 3 entry 4.
For experiment [3], the system named is Mycobacterium tuberculosis 2 strains assayed. Put plainly: Method of the proportions, Table 3 entry 8.
In experiment [4] the test system is Mycobacterium Kansasii 4 strains assayed. Nature of the experiment: Method of the proportions, Table 3 entry 12.
In experiment [5] the test system is Mycobacterium tuberculosis 8 strains assayed. Put plainly: Method of the proportions, Table 3 entry 7.
The test system of experiment [6] is Mycobacterium tuberculosis ATCC 35820. Nature of the experiment: Method of the proportions, Table 3 entry 2.
Experiment [7] deals with Mycobacterium tuberculosis ATCC 35837. Nature of the experiment: Method of the proportions, Table 3 entry 1.
Experiment [8] deals with Mycobacterium tuberculosis ATCC 35838. Put plainly: Method of the proportions, Table 3 entry 3.
In experiment [9] the test system is Mycobacterium tuberculosis 1 strain assayed. Nature of the experiment: Method of the proportions, Table 3 entry 10.
The test system of experiment [10] is Mycobacterium tuberculosis H37 RV. Nature of the experiment: Method of the proportions, Table 3 entry 5.
The subject of experiment [11] is Mycobacterium avium-intracellulare complex 5 strains assayed. Put plainly: Method of the proportions, Table 3 entry 11.
Experiment [12] deals with Mycobacterium tuberculosis 38 strains assayed. Put plainly: Method of the proportions, Table 3 entry 6.

For “4-deoxo-3,4-[(2R)-2-spiro(N-allyl-2,6-diphenyl-4-piperidil)-2,5-dihydro-1H-imidazo]rifamycin S [RFA 7M]”, the “Sensitivity of strains (s/R)” value was “s (s means sensitive)” in experiment [1]; “s (s means sensitive)” in experiment [3]; “s (s means sensitive)” in experiment [4]; “s (s means sensitive)” in experiment [5]; “R (R means resistent)” in [11]; “s (s means sensitive)” in [12]. The “Sensitivity of strain (s/R)” value in experiment [2] is recorded as “s (s means sensitive)”; in [6], “s (s means sensitive)”; in experiment [7], “R (R means resistent)”; in experiment [8] it was “s (s means sensitive)”; in experiment [9], “s (s means sensitive)”; in experiment [10], “s (s means sensitive)”.
Regarding “4-deoxo-3,4-[(2R)-2-spiro(N-buthyl-2,6-diphenyl-4-piperidil)-2,5-dihydro-1H-imidazo]rifamycin S [RFA 16M]”, the “Sensitivity of strains (s/R)” value is recorded as “s (s means sensitive)” in experiment [1]; “s (s means sensitive)” in [3]; “s (s means sensitive)” in experiment [4]; “s (s means sensitive)” in experiment [5]; “s/R” in [11]; “s (s means sensitive)” in experiment [12]. Moreover, the “Sensitivity of strain (s/R)” value in experiment [2], in [6], in experiment [7], in experiment [8], in experiment [9] and in experiment [10] was “s (s means sensitive)” each time.
Take “4-deoxo-3,4-[(2R)-2-spiro(N-homoallyl-2,6-diphenyl-4-piperidil)-2,5-dihydro-1H-imidazo]rifamycin S [RFA 15M]”: the “Sensitivity of strains (s/R)” value in experiment [1] was “s (s means sensitive)”; in [3], “s (s means sensitive)”; in experiment [4], “s (s means sensitive)”; in [5], “s (s means sensitive)”; in experiment [11], “s/R”; in experiment [12], “s (s means sensitive)”. The “Sensitivity of strain (s/R)” value was “s (s means sensitive)” in experiment [2]; “s (s means sensitive)” in [6]; “R (R means resistent)” in experiment [7]; “s (s means sensitive)” in experiment [8]; “s (s means sensitive)” in [9]; “s (s means sensitive)” in [10].
Consider “4-deoxo-3,4-[(2R)-2-spiro[2,6-bis(4-fluorophenyl)-4-piperidil]-2,5-dihydro-1H-imidazo]rifamycin S [RFA 5M]”, for which the “Sensitivity of strains (s/R)” value in experiment [1], in experiment [3], in experiment [4], in experiment [5], in [11] and in experiment [12] was “s (s means sensitive)” each time. Moreover, the “Sensitivity of strain (s/R)” value in experiment [2], in experiment [6], in experiment [7], in experiment [8], in [9] and in experiment [10] was “s (s means sensitive)” in each case.
